Reference: publication PMC7281614, “Induction of Antibacterial Metabolites by Co-Cultivation of Two Red-Sea-Sponge-Associated Actinomycetes Micromonospora sp. UR56 and Actinokinespora sp. EG49” (Marine Drugs, 2020)
Like-named read-outs stand apart in the source and are kept apart here.

What was measured:
[1] = tested on: Bacillus subtilis ATCC29212; test: Antibacterial activity, growth inhibition in 96 well plates (OD600); assay type: cell-based
Procedure: (§1) The antibacterial activity of all isolated pure compounds (1–3, 9, and 10) was evaluated on Gram-positive pathogenic bacteria such as Bacillus subtilis (ATCC29212) and Staphylococcus aureus (ATCC9144 (and Gram-negative pathogenic bacteria such as Escherichia coli. (ATCC25922) and Pseudomonas aeruginosa (ATCC27853), as previously reported. The tests were carried out in 96 well flat polystyrene plates. First, 10 μL of each isolated compound (15 µM) was transferred to 80 μL of lysogeny broth followed by the addition of 10 μL of bacterial suspension at log phase, and then all inoculated plates were incubated overnight at 37 °C. […] The absorbance was observed after 20 h at OD600 in a Spectrostar Nano Microplate Reader (BMG LABTECH GmbH, Allmendgrun, Germany). The positive control was pathogenic bacteria plus distilled water, while the negative control was growth medium plus distilled water.

[2] = tested on: Escherichia coli ATCC25922; test: as above; assay type: cell-based
Procedure: as §1

[3] = tested on: Pseudomonas aeruginosa ATCC27853; test: as above; assay type: cell-based; settings: NA: no activity; for inhibition at 15 µM: Pseudomonas aeruginosa; for Growth inhibition % Pseudomonas aeruginosa: at 15 µM, 15 µM
Procedure: as §1

[4] = tested on: Staphylococcus aureus ATCC9144; test: as above; assay type: cell-based; settings: NA: no activity; for inhibition at 15 µM: Staphylococcus aureus, ATCC9144, at 15 µM; for Growth inhibition % Staphylococcus aureus: at 15 µM, 15 µM
Procedure: as §1

S. aureus = test: Antibiofilm activity, crystal violet staining; assay type: cell-based, Staphylococcus aureus; settings: NA: no activity; for inhibition at 2 µM: Staphylococcus aureus; for Antibiofilm activity (% inhibition) S. aureus: at 2 µM, 2 µM
Procedure: (§2) The biofilm-inhibitory activities of the isolated pure compounds (1–3, 9, and 10) were measured using 96 well flat polystyrene plates against four clinical microbes comprising Gram-positive (Bacillus subtilis and Staphylococcus aureus) and Gram-negative (Escherichia coli and Pseudomonas aeruginosa) pathogenic bacteria, according to Antunes, et al. with some modifications. Briefly, each well was filled with 180 µL lysogeny broth (LB broth) and then inoculated with 10 µL of pathogenic bacteria followed by addition of 10 µL of sample (2 µM) along with control (without test sample). All inoculated plates were then incubated overnight at 37 °C and, after incubation, content in the wells was removed and wells were rinsed with 200 µL of phosphate-buffered saline (PBS) pH 7.2 to eliminate free-floating microbes and left to dry under sterilized laminar flow for 1 h. For staining, 200 µL/well of crystal violet (0.1%, w/v) was added, left for 1 h, and then excessive stain was removed and plates retained for drying. Further, dried plates were rinsed with 95% ethanol and optical density was measured at 570 nm using a Spectrostar Nano Microplate Reader (BMG LABTECH GmbH, Allmendgrun, Germany).

B. subtilis = test: Antibiofilm activity, crystal violet staining; assay type: cell-based; settings: Bacillus subtilis, NA: no activity
Procedure: as §2

E. coli = test: Antibiofilm activity, crystal violet staining; assay type: cell-based; settings: Escherichia coli, read-out: Antibiofilm activity (% inhibition) E. coli
Procedure: as §2

P. aeruginosa = test: Antibiofilm activity, crystal violet staining; assay type: cell-based, Pseudomonas aeruginosa; settings: for inhibition at 2 µM: Pseudomonas aeruginosa
Procedure: as §2

in vitro = settings: human
Procedure: (§3) The cell lines were purchased from ATCC by (VACSERA), Cairo, Egypt. […] The cell lines were used to detect the inhibitory effects of isolated compounds on cell growth. Cell viability was determined via colorimetric assay (MTT), which is based on the transformation of the yellow tetrazolium bromide to a purple formazan by mitochondrial succinate dehydrogenase. […] Subsequently, the cells were mixed with different concentrations of the isolated compounds and incubated for a further 24 h, and then treated with 20 µL of MTT solution at a concentration of 5 mg/mL and incubated for 4 h. […] The relative cell viability as a percentage was calculated as A570 of treated samples/A570 of untreated sample × 100.

HCT116 = test: Cytotoxic activity, MTT assay; settings: Homo sapiens, HCT-116, 24 h, read-out: Cytotoxic activity (IC50) HCT116
Procedure: as §3

MCF7 = test: Cytotoxic activity, MTT assay; settings: Homo sapiens, MCF7, 24 h, read-out: Cytotoxic activity (IC50) MCF7
Procedure: as §3

HePG-2 = test: Cytotoxic activity, MTT assay; assay type: cell-based; settings: Homo sapiens, read-out: Cytotoxic activity (IC50) HePG-2
Excerpt: (§4) Doxorubicin was used as a positive control drug.

[5] = target: T1, Staphylococcus DNA gyrase-B (Staphylococcus aureus, UniProt P0A0K8); test: In vitro enzyme assay, DNA gyrase-B ATPase (Inspiralis kit); assay type: biochemical
T1 construct: purchased Inspiralis
Procedure: (§5) DNA gyrase (type II topoisomerase) and topoisomerase IV (ParE) add negative supercoils into DNA using ATP hydrolysis as a source of energy. They are considered crucial bacterial enzymes that are absent in eukaryotes. DNA-gyrase-B- and ParE-inhibitory activities were evaluated using the Inspiralis assay kit (Inspiralis®, London, UK) on streptavidin-coated 96 well microtiter plates (Thermo Scientific, Hamburg, Germany), according to the manufacturer’s protocol. The assay detects the ability of the isolated compounds to prevent the ATPase activity of both gyrase-B and ParE subunits. On the other hand, pyruvate kinase (PK) has been discovered to be an important hub protein in the interactome of MRSA [52]. The PK-inhibitory activity of the isolated compounds was assessed according to a previously reported method.

[6] = target: Staphylococcus pyruvate kinase (PK) (Staphylococcus aureus, UniProt Q6GG09); test: In vitro enzyme assay, pyruvate kinase inhibition; assay type: biochemical; settings: IC50 ± SD
Procedure: as §5

[7] = tested on: four human cancer cell lines; test: Cytotoxic activity, MTT assay, all four tested cell lines together; assay type: cell-based; settings: range over WI38, HCT116, HePG-2, MCF7, read-out: IC50 values towards the tested cell lines (range)
Excerpt: as §4

[8] = ATCC29212, at 15 µM, NA: no activity, read-out: Growth inhibition % Bacillus subtilis
[9] = ATCC25922, at 15 µM, NA: no activity, read-out: Growth inhibition % Escherichia coli
[10] = ATCC27853, at 15 µM, read-out: Growth inhibition % Pseudomonas aeruginosa
[11] = at 2 µM, read-out: Antibiofilm activity (% inhibition) P. aeruginosa
[12] = IC50 ± SD, read-out: IC50 (µM) Gyr-B

T1 sequence (P0A0K8 whole entry): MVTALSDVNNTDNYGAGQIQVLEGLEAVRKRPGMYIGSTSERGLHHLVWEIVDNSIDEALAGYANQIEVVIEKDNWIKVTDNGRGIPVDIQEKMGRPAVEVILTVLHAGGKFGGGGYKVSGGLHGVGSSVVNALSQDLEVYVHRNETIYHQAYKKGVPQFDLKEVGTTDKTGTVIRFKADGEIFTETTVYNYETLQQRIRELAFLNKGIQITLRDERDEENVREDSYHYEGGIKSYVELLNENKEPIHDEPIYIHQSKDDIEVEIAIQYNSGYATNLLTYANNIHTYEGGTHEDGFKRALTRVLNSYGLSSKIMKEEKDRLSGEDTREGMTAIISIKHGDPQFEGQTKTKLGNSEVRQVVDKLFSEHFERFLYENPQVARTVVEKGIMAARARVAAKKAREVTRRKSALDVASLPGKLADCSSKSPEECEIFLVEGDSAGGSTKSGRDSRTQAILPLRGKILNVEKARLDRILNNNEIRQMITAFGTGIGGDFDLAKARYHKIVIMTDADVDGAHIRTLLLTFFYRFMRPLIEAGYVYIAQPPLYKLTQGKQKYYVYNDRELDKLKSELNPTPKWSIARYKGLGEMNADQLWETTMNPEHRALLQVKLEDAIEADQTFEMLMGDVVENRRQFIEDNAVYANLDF
T1 sequence (P20831 whole entry partner): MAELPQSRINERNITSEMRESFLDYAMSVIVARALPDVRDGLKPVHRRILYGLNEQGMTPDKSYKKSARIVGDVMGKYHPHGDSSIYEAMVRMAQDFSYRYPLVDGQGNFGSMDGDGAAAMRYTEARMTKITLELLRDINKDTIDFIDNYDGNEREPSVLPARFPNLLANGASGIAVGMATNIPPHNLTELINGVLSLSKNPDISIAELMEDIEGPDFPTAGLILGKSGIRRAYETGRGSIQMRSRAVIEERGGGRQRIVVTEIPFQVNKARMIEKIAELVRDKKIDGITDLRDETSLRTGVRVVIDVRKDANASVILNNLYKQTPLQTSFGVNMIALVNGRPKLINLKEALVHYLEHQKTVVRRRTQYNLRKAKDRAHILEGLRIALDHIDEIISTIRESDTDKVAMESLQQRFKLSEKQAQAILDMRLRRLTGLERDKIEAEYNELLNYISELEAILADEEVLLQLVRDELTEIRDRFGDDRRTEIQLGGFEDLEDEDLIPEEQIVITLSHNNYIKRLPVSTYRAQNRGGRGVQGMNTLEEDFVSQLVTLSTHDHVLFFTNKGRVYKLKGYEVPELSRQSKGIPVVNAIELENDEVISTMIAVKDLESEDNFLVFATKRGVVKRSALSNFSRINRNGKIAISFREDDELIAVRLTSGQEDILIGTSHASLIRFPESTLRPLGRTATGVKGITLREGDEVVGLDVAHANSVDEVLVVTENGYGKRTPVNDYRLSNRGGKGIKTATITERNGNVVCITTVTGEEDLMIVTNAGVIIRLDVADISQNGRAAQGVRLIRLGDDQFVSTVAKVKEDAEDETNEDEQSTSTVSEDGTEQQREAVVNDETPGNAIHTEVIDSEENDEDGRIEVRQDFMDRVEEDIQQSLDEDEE
Sequence of Staphylococcus pyruvate kinase (PK) (Q6GG09 whole entry): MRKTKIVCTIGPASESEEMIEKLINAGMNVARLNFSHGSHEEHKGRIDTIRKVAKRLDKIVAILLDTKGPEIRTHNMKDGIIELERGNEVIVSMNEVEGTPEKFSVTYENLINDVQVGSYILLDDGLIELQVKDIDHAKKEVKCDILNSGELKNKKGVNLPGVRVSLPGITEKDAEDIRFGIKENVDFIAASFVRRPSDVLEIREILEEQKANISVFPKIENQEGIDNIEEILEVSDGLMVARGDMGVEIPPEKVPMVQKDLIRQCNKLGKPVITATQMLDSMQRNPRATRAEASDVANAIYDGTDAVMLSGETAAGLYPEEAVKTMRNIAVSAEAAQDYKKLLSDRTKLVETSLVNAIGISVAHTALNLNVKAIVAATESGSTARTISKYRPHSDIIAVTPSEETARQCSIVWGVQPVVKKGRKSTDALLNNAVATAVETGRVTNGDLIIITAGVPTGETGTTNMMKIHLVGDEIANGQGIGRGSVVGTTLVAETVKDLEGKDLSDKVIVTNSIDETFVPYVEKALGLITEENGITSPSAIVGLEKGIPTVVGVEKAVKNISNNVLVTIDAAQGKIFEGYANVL

SMILES	inhibition at 15 µM [1, 8]	inhibition at 15 µM [2, 9]	inhibition at 15 µM [3, 10]	inhibition at 15 µM [4]	inhibition at 2 µM (S. aureus)	inhibition at 2 µM (B. subtilis)	inhibition at 2 µM (E. coli; at 2 µM)	inhibition at 2 µM (P. aeruginosa; [11])	IC50 at 24 h (in vitro)	IC50 (HCT116)	IC50 (MCF7)	IC50 (HePG-2; HepG2, 24 h)	IC50 [6]	other results
CNC(C)C1CCC(N)C(OC2C(N)CC(N)C(OC3OCC(C)(O)C(NC)C3O)C2O)O1 (centres unmarked) [Gentamicin, reference compound]	97 ± 1.6%	99 ± 0.6%	99.7 ± 0.2%	99.1 ± 0.7%										
COC(=O)c1cccc2nc3c(C(=O)OC)cccc3nc12 [Compound 1, dimethyl phenazine-1,6-dicarboxylate]	19.6 ± 1.5%	9.93 ± 1.3%	23.4 ± 1.7%	47%	50%	12.1 ± 3.2%	36.7 ± 2.9%	18.4 ± 0.9%	63.2 ± 3.6 µM	85 ± 3.9 µM	> 100 µM	92.1 ± 4.7 µM	7.2 ± 0.07 µM	Growth inhibition % Staphylococcus aureus [4]: 57.19 ± 1.2%; Antibiofilm activity (% inhibition) S. aureus (S. aureus): 50.26 ± 0.4%; IC50 [5, 12]: 19.2 ± 1.69 µM
COC(=O)c1cccc2nc3c(C(=O)O)cccc3nc12 [Compound 2, phenazine-1,6-dicarboxylic acid mono methyl ester]	32.1 ± 1.3%	11.2 ± 1.4%	23.2 ± 2.2%	69%	75%	18.6 ± 1.6%	54.1 ± 2.5%	22.3 ± 1.5%	76.3 ± 3.9 µM	60.8 ± 3.5 µM	82.2 ± 4.4 µM	76.1 ± 3.9 µM	9.3 ± 0.03 µM	Growth inhibition % Staphylococcus aureus [4]: 68.87 ± 0.8%; Antibiofilm activity (% inhibition) S. aureus (S. aureus): 75.10 ± 2.4%; IC50 [5, 12]: 21.3 ± 2.36 µM
COc1ccc(C(N)=O)cc1 [Compound 10, p-anisamide]	42.2 ± 1.9%	19.3 ± 2.5%	70%	53.2 ± 1.2%	61.2 ± 3.7%	20.3 ± 1.1%	57.5 ± 3.1%	73%	> 100 µM	> 100 µM	> 100 µM	> 100 µM		Growth inhibition % Pseudomonas aeruginosa [3]: 70.23 ± 1.1%; Antibiofilm activity (% inhibition) P. aeruginosa (P. aeruginosa; at 2 µM): 73.52 ± 1.3%
O=C(O)c1cccc2nc3ccccc3nc12 [Compound 3, phenazine-1-carboxylic acid]									51.2 ± 3.2 µM	91.3 ± 4.6 µM	> 100 µM	> 100 µM	22.5 ± 0.04 µM	inhibition at 15 µM ([1]; ATCC29212, read-out: Growth inhibition % Bacillus subtilis): 1.69 ± 1.2%; inhibition at 15 µM ([2]; ATCC25922, read-out: Growth inhibition % Escherichia coli): 24.3 ± 1.8%; inhibition at 15 µM ([3]; ATCC27853, read-out: Growth inhibition % Pseudomonas aeruginosa, at 15 µM): 94%; Growth inhibition % Pseudomonas aeruginosa [3]: 94.17 ± 2.8%; inhibition at 2 µM (E. coli): 54.7 ± 1.4%; inhibition at 2 µM (P. aeruginosa; read-out: Antibiofilm activity (% inhibition) P. aeruginosa, at 2 µM): 94%; Antibiofilm activity (% inhibition) P. aeruginosa (P. aeruginosa; at 2 µM): 93.98 ± 2.2%; IC50 [5]: 27.7 ± 1.08 µM
CC(=O)Nc1ccccc1O [Compound 9, N-(2-hydroxyphenyl)-acetamide]			4.74 ± 1.6%		11.5 ± 2.9%	4.91 ± 1.8%	34.5 ± 2.6%	7.39 ± 1.9%	36.5 ± 2.3 µM	14.6 ± 1.2 µM	12.7 ± 1.1 µM	10.2 ± 0.9 µM		IC50 [7]: 10 to 36 µM
COc1cccc2c1C(=O)c1c(O)c3c(c(O)c1C2=O)C[C@@](O)(C(=O)CO)C[C@@H]3O[C@H]1C[C@H](N)[C@H](O)[C@H](C)O1 [Doxorubicin, reference compound]														IC50 (HePG-2; HepG2, MTT, 24 h, table title prints "at 2 µM"): 4.5 ± 0.2 µM
